Test: Ready-to-use formulation stability at 2-8° C., 5 mg/mL (R,R)-pyrodach-2 in 10 mM Potassium Phosphate Buffer at pH 7.4, 10 mL vials
Type: physicochemical
Protocol: A scalable and commercially viable process for the manufacture of a ready-to-use formulation of (R,R)-pyrodach-2 in 10 mM buffer adjusted to a pH of 7.0-7.5 comprises the steps of: a) preparing a 10 mM aqueous solution of buffer; b) adding sufficient hydroxide base to effect neutralization of the added (R,R)-pyrodach-2 to reach a pH of about 7; c) adding (R,R)-pyrodach-2 and allowing it to dissolve; d) if necessary adding additional hydroxide to adjust the pH into a range of about 7.0-7.5; and e) filtering the solution under sterile conditions, filling the solution into glass vials, and covering it with a stopper and/or a cap. Stability data on two large batches of 5 mg/mL (R,R)-pyrodach-2 in 10 mM potassium phosphate buffer were generated. One such batch at pH=7.2 was evaluated at both 25° C./60% RH and refrigerated (2-8° C.) conditions, with data summarized in Table 4 and Table 5, respectively. […] Similar observations have been made for the ready-to-use liquid formulation at pH7.4, as illustrated in Table 6 and Table 7.
• Transfer 4564.6 mg±0.5 mg of potassium phosphate dibasic, trihydrate to a 2-L volumetric flask. • Fill flask to approximately 75% volume with water, swirl as needed to dissolve all solids. • Volumetrically transfer 32.0 mL of 1N KOH to flask. • Dilute flask to volume with water and mix well. • Record pH of final solution. This is the diluent. • Transfer 7653.1 mg±0.5 mg of (R,R)-pyrodach-2 to a compounding vessel. • Transfer 1500 mL of the diluent to the vessel and stir to dissolve solids. • Record pH of final solution. • Pass entire solution through a 0.22 μm sterile filter membrane into a sterile collection vessel. • Calculate (R,R)-pyrodach-2 solution concentration
To a […] glass beaker equipped with mechanical mixer was add 24645.5 g of sterile water for injection. With agitation 47.03 gm of dibasic potassium phosphate USP was added and the solids allowed to dissolve. To the stirred solution was added 253.8 gm of 1.00 N potassium hydroxide. Sterile water for injection USP (900.0 gm) was used as a rinse to facilitate both additions. With vigorous agitation, (R,R)-pyrodach-2 (201.87 gm) was slowly added and agitation continued until all of the solids dissolved. Sterile water for injection USP (900.0 gm) was used as a rinse to facilitate the addition. The pH was determined to be 6.7. A total of 85 mL of 1.00 N potassium hydroxide was added in 5.0 mL aliquots to adjust the pH to 7.3. The solution was sterile filtered through 0.22μ Millipore Millipack filter and aseptically filled, 10 ml top a vial in 10 mL in 10 cc Wheaton clear molded vails, stoppered with a 20 mm stopper and crimp seal capped.

## O=P1(O)OP(=O)(O)[O][Pt]2([NH][C@@H]3CCCC[C@H]3[NH]2)[O]1 (stereo partly drawn) [(R,R)-pyrodach-2, (R,R)-trans-1,2-cyclohexanediamine-(dihydrogenpyrophosphato)platinum(II)]
1 Month
  (DACH) Pt-diaquo (~RRT 0.3): 0.15%
  (DACH) Pt-monoaquo (~RRT 0.7): 1.04%
  Assay (Potency): 98.7%
  PT-112 Dimer (~RRT 4.0): 0.33%
  RRT 0.50: 0.06%
  RRT 0.56: 0.10%
  RRT 0.68: 0.19%
  RRT 0.86: 0.05%
  RRT 3.1-3.2: 0.13%
  Total Related Substances: 2%
  pH: 7.4
3 Month
  (DACH) Pt-diaquo (~RRT 0.3): 0.14%
  (DACH) Pt-monoaquo (~RRT 0.7): 0.92%
  Assay (Potency): 99.7%
  PT-112 Dimer (~RRT 4.0): 0.37%
  RRT 0.50: 0.06%
  RRT 0.56: 0.12%
  RRT 0.68: 0.11%
  RRT 3.1-3.2: 0.25%
  Total Related Substances: 2%
  pH: 7.4
6 Month
  (DACH) Pt-diaquo (~RRT 0.3): 0.17%
  (DACH) Pt-monoaquo (~RRT 0.7): 0.28%
  Assay (Potency): 98.2%
  PT-112 Dimer (~RRT 4.0): 0.36%
  RRT 0.46: 0.06%
  RRT 0.50: 0.18%
  RRT 0.56: 0.06%
  RRT 0.68: 0.16%
  RRT 0.86: 0.05%
  RRT 3.1-3.2: 0.38%
  Total Related Substances: 2%
  pH: 7.4
6 Month, first value
  Particulate Matter (Light Obscuration): 83 particles particles per container
6 Month, second value
  Particulate Matter (Light Obscuration): 1 particles particles per container
9 Month
  (DACH) Pt-diaquo (~RRT 0.3): 0.14%
  (DACH) Pt-monoaquo (~RRT 0.7): 0.81%
  Assay (Potency): 100.2%
  PT-112 Dimer (~RRT 4.0): 0.33%
  RRT 0.46: 0.05%
  RRT 0.50: 0.18%
  RRT 0.56: 0.07%
  RRT 0.68: 0.08%
  RRT 0.86: 0.05%
  RRT 3.1-3.2: 0.39%
  RRT 3.58: 0.07%
  Total Related Substances: 2%
  pH: 7.4
12 Month
  (DACH) Pt-diaquo (~RRT 0.3): 0.12%
  (DACH) Pt-monoaquo (~RRT 0.7): 0.96%
  Assay (Potency): 98.7%
  PT-112 Dimer (~RRT 4.0): 0.34%
  RRT 0.50: 0.15%
  RRT 0.56: 0.16%
  RRT 0.68: 0.11%
  RRT 0.86: 0.05%
  RRT 3.1-3.2: 0.48%
  Total Related Substances: 2%
  pH: 7.4
12 Month, first value
  Particulate Matter (Light Obscuration): 124 particles per container
12 Month, second value
  Particulate Matter (Light Obscuration): 6 particles particles per container
15 Month
  (DACH) Pt-diaquo (~RRT 0.3): 0.14%
  (DACH) Pt-monoaquo (~RRT 0.7): 0.94%
  Assay (Potency): 98.0%
  PT-112 Dimer (~RRT 4.0): 0.34%
  RRT 0.50: 0.16%
  RRT 0.56: 0.17%
  RRT 0.68: 0.12%
  RRT 0.86: 0.06%
  RRT 3.1-3.2: 0.59%
  RRT 3.58: 0.07%
  Total Related Substances: 3%
  pH: 7.4
18 Month
  (DACH) Pt-diaquo (~RRT 0.3): 0.13%
  (DACH) Pt-monoaquo (~RRT 0.7): 0.76%
  Assay (Potency): 97.5%
  PT-112 Dimer (~RRT 4.0): 0.33%
  RRT 0.46: 0.09%
  RRT 0.50: 0.26%
  RRT 0.56: 0.06%
  RRT 0.68: 0.08%
  RRT 0.86: 0.05%
  RRT 3.1-3.2: 0.58%
  RRT 3.58: 0.10%
  Total Related Substances: 2%
  pH: 7.4
21 Month
  (DACH) Pt-diaquo (~RRT 0.3): 0.12%
  (DACH) Pt-monoaquo (~RRT 0.7): 1.07%
  Assay (Potency): 97.4%
  PT-112 Dimer (~RRT 4.0): 0.35%
  RRT 0.46: 0.07%
  RRT 0.50: 0.23%
  RRT 0.56: 0.12%
  RRT 0.68: 0.14%
  RRT 0.86: 0.05%
  RRT 3.1-3.2: 0.67%
  RRT 3.58: 0.10%
  Total Related Substances: 3%
  pH: 7.4
24 Month
  (DACH) Pt-diaquo (~RRT 0.3): 0.11%
  (DACH) Pt-monoaquo (~RRT 0.7): 0.93%
  Assay (Potency): 96.5%
  PT-112 Dimer (~RRT 4.0): 0.33%
  RRT 0.46: 0.08%
  RRT 0.50: 0.25%
  RRT 0.56: 0.12%
  RRT 0.68: 0.11%
  RRT 0.86: 0.06%
  RRT 3.1-3.2: 0.65%
  RRT 3.58: 0.14%
  Total Related Substances: 3%
  pH: 7.4
Initial
  (DACH) Pt-diaquo (~RRT 0.3): 0.16%
  (DACH) Pt-monoaquo (~RRT 0.7): 0.84%
  Assay (Potency): 98.1%
  PT-112 Dimer (~RRT 4.0): 0.34%
  RRT 0.50: 0.06%
  RRT 0.56: 0.08%
  RRT 0.68: 0.09%
  RRT 3.1-3.2: 0.11%
  Total Related Substances: 2%
  pH: 7.4
Initial, first value
  Particulate Matter (Light Obscuration): 30 particles particles per container
Initial, second value
  Particulate Matter (Light Obscuration): 11 particles particles per container
